Measured values: ChEMBL document CHEMBL1201862, “PubChem BioAssay data set” (2004)
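96-well plates; 48 h exposure; 5 concentrations. Endpoints by linear interpolation between flanking doses. Not reached: highest tested concentration assigned. Abbreviation: GI50, concentration required for 50% inhibition of growth.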 The source made the active and inactive calls. Rule as the data show it: active = GI50 up to about 1.1 µM and inactive = higher. Where a SMILES comes first, the peptide text is derived from it. The star is where a group is joined. Boc = CC(C)(C)OC(=O)*

Assays:
Experiment in all cases: NCI tumour cell line growth inhibition, 48 h
[1] = system: SNB-78
[2] = system: LXFL 529
[3] = system: HOP-18
[4] = system: DMS-114
[5] = system: DLD-1
[6] = system: XF498
[7] = system: M19-MEL
[8] = system: DMS-273
[9] = system: RXF 631

Measured: GI50

COc1ccc(/C(Cl)=C/c2ccc(Cl)c(Cl)c2)cc1
inactive: [1] 23.6 µM | [2] 33.8 µM | [3] 16.5 µM | [4] 16.6 µM | [5] 25.9 µM | [6] 22.4 µM | [7] 30.6 µM | [8] 24.4 µM

COC1/C(=C\C(C)=O)c2ccccc2N1C(C)=O (stereo not given)
inactive: [2] > 100 µM | [3] > 100 µM | [9] > 100 µM | [5] > 100 µM | [6] > 100 µM | [7] > 100 µM | [8] > 100 µM

COc1ccc2c(c1)[n+]([O-])c(C(N)=O)c(N)[n+]2[O-]
inactive: [1] > 100 µM | [2] 66.4 µM | [3] > 100 µM | [4] 35.6 µM | [9] 34 µM | [5] > 100 µM | [7] 73.3 µM | [8] 71.9 µM

S=c1sc2c(n1-c1ccccc1)N=CNC2S (stereo not given)
inactive: [1] 87.5 µM | [2] > 100 µM | [3] 28.8 µM | [4] 31.1 µM | [5] > 100 µM | [6] > 100 µM | [7] 96.4 µM | [8] > 100 µM

Cc1ccc(C(=O)O/N=C2/CCCCC2CN(C)C)cc1 (stereo not given)
inactive: [1] > 100 µM | [2] > 100 µM | [3] > 100 µM | [4] > 100 µM | [9] > 100 µM | [5] > 100 µM | [7] > 100 µM | [8] > 100 µM

CSc1cnc2ccccc2c1Sc1c[nH]c2ccccc2c1=O
inactive: [1] 57.3 µM | [2] 8.67 µM | [3] 14.9 µM | [4] 5.7 µM | [5] 11.7 µM | [7] 5.22 µM | [8] 8.38 µM

O=[N+]([O-])c1ccc(/C=C/c2ccc(/C=C/c3ccc([N+](=O)[O-])cc3[N+](=O)[O-])cc2)c([N+](=O)[O-])c1
inactive: [1] > 100 µM | [2] > 100 µM | [4] > 100 µM | [5] > 100 µM | [6] > 100 µM | [8] > 100 µM

COc1ccc(Br)c(CCCCC(=O)O)c1
inactive: [1] > 100 µM | [2] > 100 µM | [3] > 100 µM | [4] > 100 µM | [5] > 100 µM | [6] > 100 µM | [7] > 100 µM | [8] > 100 µM

O=C(CC1(O)C(=O)Nc2ccccc21)c1ccco1 (stereo not given)
inactive: [1] > 100 µM | [2] > 100 µM | [4] > 100 µM | [5] > 100 µM | [6] > 100 µM | [7] > 100 µM | [8] > 100 µM

COc1ccc(/C(Cl)=C(\C=O)c2cc(OC)c(OC)c(OC)c2)cc1OC
inactive: [1] 16.8 µM | [2] 11.2 µM | [3] 12.2 µM | [4] 12.1 µM | [9] 19.7 µM | [7] 35.2 µM | [8] 35.8 µM

O=[N+]([O-])c1cc2c(cc1O)[nH]c1cccc([N+](=O)[O-])c12
inactive: [1] > 100 µM | [3] 33.9 µM | [4] > 100 µM | [5] > 100 µM | [6] > 100 µM | [7] > 100 µM | [8] > 100 µM

COc1ccc(NC(=O)CC(=O)n2nc(-c3ccccc3)c(/N=N/c3ccccc3C(=O)O)c2-c2ccccc2)cc1
inactive: [2] > 100 µM | [4] > 100 µM | [9] > 100 µM | [5] > 100 µM | [7] > 100 µM | [8] > 100 µM

COc1ccc2c(C(=O)O)cc3cc(OC)c(OC)cc3c2c1
inactive: [1] > 100 µM | [2] > 100 µM | [3] > 100 µM | [9] > 100 µM | [5] > 100 µM | [6] > 100 µM | [7] > 100 µM | [8] > 100 µM

COC(=O)Cc1cc(=O)[nH]c2c1C(=O)CCC2
inactive: [2] > 100 µM | [3] > 100 µM | [5] > 100 µM | [6] > 100 µM

N#Cc1c(NN)nc(NN)c(C#N)c1-c1ccccc1
inactive: [1] > 100 µM | [2] > 100 µM | [3] > 100 µM | [4] > 100 µM | [9] > 100 µM | [5] > 100 µM | [6] > 100 µM | [7] > 100 µM | [8] > 100 µM

CCC(=O)c1cn(C)c(=O)c2ccccc12
inactive: [1] > 100 µM | [2] > 100 µM | [4] > 100 µM | [9] > 100 µM | [5] > 100 µM | [6] > 100 µM | [8] > 100 µM

CCOC(=O)C/C(=N\c1cc(C)on1)N(CC)CC.[O-][Cl+3]([O-])([O-])O
inactive: [1] > 100 µM | [2] > 100 µM | [4] > 100 µM | [5] > 100 µM | [6] > 100 µM | [7] > 100 µM | [8] > 100 µM

c1ccc2cc(-c3cc4ccccc4s3)ccc2c1
inactive: [1] > 100 µM | [3] > 100 µM | [4] > 100 µM | [5] > 100 µM | [6] > 100 µM | [7] > 100 µM | [8] > 100 µM

CC(=O)CC(=O)CCCC(=O)Nc1ccc(Cl)cc1C
inactive: [1] > 100 µM | [2] > 100 µM | [3] > 100 µM | [4] > 100 µM | [9] > 100 µM | [5] > 100 µM | [7] > 100 µM | [8] > 100 µM

C1CN(c2nnc(N3CCC3)nn2)C1
inactive: [1] 57.4 µM | [2] 21.3 µM | [3] > 100 µM | [4] 21.3 µM | [9] > 10 µM | [5] > 100 µM | [6] 22.2 µM | [7] 15.1 µM | [8] > 43.2 µM

CC(C)(C)OC(=O)NC(Cc1ccc(O)cc1)C(=O)N1CCCC1C(=O)O (stereo not drawn) (Boc-Tyr-Pro-OH; configuration not given here)
inactive: [1] > 100 µM | [2] > 100 µM | [3] > 100 µM | [4] > 100 µM | [9] > 100 µM | [5] > 100 µM | [6] > 100 µM | [7] > 100 µM | [8] > 100 µM
